Assays:
Homo sapiens [1] = test: Toxicity in high-fat fed healthy human assessed as incidence of severe adverse events at 200 mg, po administered as single dose of two-100 mg capsules; format: organism-based; conditions: in vivo
[2] = AUC (0 to last) in healthy human plasma at 200 mg, po once daily for 3 days measured after 1 day; format: ADME, organism-based; parameters: dose 200 mg, time 0 - last, route oral
Homo sapiens [3] = test: Toxicity in healthy human in 8 hrs fasted healthy human assessed as changes in ECG at 200 mg, po administered as single dose of two-100 mg capsules; format: organism-based; conditions: in vivo
Homo sapiens [4] = test: Toxicity in healthy human in 8 hrs fasted healthy human assessed as changes in physical examinations at 200 mg, po administered as single dose of suspension; format: organism-based; conditions: in vivo
[5] = Tmax in healthy human plasma at 200 mg, po once daily for 3 days measured after 3 days; format: ADME, organism-based
Homo sapiens [6] = test: Ratio of Cmax in 8 hrs fasted healthy human plasma at 200 mg, po administered as single dose of two-100 mg capsules to cmax in 8 hrs fasted healthy human plasma assessed as EDP-420 9-keto level at 200 mg, po administered as single dose of two-100 mg capsules; format: ADME, organism-based; conditions: in vivo
[7] = AUC (0 to 24 hrs) in Alveolar macrophage of healthy human at 400 mg, po administered as single dose; format: ADME, organism-based; conditions: alveolar macrophages, read-out: Drug uptake
[8] = AUC (0 to last) in high-fat fed healthy human plasma at 200 mg, po administered as single dose of two-100 mg capsules; format: ADME, organism-based; parameters: dose 200 mg, time 0 - last, route oral
Homo sapiens [9] = test: Ratio of AUC (0 to 24 hrs) in healthy human plasma at 200 mg, po once daily for 3 days measured after 3 days to AUC (0 to 24 hrs) in healthy human plasma at 200 mg, po once daily for 3 days measured after 1 day; format: ADME, organism-based; conditions: in vivo
[10] = Tmax in high-fat fed healthy human plasma at 200 mg, po administered as single dose of two-100 mg capsules; format: ADME, organism-based
Homo sapiens [11] = test: Toxicity in high-fat fed healthy human assessed as changes in ECG at 200 mg, po administered as single dose of two-100 mg capsules; format: organism-based; conditions: in vivo
[12] = AUC (0 to last) in healthy human plasma at 200 mg, po once daily for 3 days measured after 3 days; format: ADME, organism-based; parameters: dose 200 mg, route oral, time 0 - last
Homo sapiens [13] = test: Toxicity in healthy human assessed as incidence of severe adverse events at 200 mg, po once daily for 3 days; format: organism-based; conditions: in vivo, 72 h
[14] = Cmax in 8 hrs fasted healthy human plasma at 200 mg, po administered as single dose of two-100 mg capsules; format: ADME, organism-based; parameters: dose 200 mg, route oral
[15] = AUC (0 to last) in healthy human plasma at loading dose of 400 mg/day, po once daily for 3 days measured after 1 day; format: ADME, organism-based; parameters: dose 400 mg/day, time 0 - last, route oral
Homo sapiens [16] = test: Toxicity in healthy human in 8 hrs fasted healthy human assessed as changes in ECG at 200 mg, po administered as single dose of suspension; format: organism-based; conditions: in vivo
Homo sapiens [17] = test: Toxicity in healthy human in 8 hrs fasted healthy human assessed as incidence of severe adverse events at 200 mg, po administered as single dose of two-100 mg capsules; format: organism-based; conditions: in vivo
[18] = Half life in healthy human plasma at 200 mg, po once daily for 3 days measured after 3 days; format: ADME, organism-based
Homo sapiens [19] = test: Toxicity in healthy human assessed as severe adverse events at 400 mg administered once on day 1 followed by 200 mg once daily for 2 days during 3 days of treatment; format: organism-based; conditions: in vivo
[20] = Cmax in 8 hrs fasted healthy human plasma at 200 mg, po administered as single dose of suspension; format: ADME, organism-based; parameters: dose 200 mg, route oral
Homo sapiens [21] = test: Toxicity in healthy human in 8 hrs fasted healthy human assessed as changes in physical examinations at 200 mg, po administered as single dose of two-100 mg capsules; format: organism-based; conditions: in vivo
Homo sapiens [22] = test: Toxicity in healthy human in 8 hrs fasted healthy human assessed as changes in liver functions at 200 mg, po administered as single dose of suspension; format: organism-based; conditions: in vivo
Homo sapiens [23] = test: Ratio of AUC (0 to infinity)in 8 hrs fasted healthy human plasma at 200 mg, po administered as single dose of two-100 mg capsules to AUC (0 to infinity) in 8 hrs fasted healthy human plasma assessed as EDP-420 9-keto level at 200 mg, po administered as single dose of two-100 mg capsules; format: ADME, organism-based; conditions: in vivo
Homo sapiens [24] = test: Ratio of AUC (0 to infinity) in 8 hrs fasted healthy human plasma at 200 mg, po administered as single dose of suspension to AUC (0 to infinity) in 8 hrs fasted healthy human plasma assessed as EDP-420 9-keto level at 200 mg, po administered as single dose of suspension; format: ADME, organism-based; conditions: in vivo
[25] = Tmax in healthy human plasma at 200 mg, po once daily for 3 days measured after 1 day; format: ADME, organism-based
[26] = Half life in 8 hrs fasted healthy human plasma at 200 mg, po administered as single dose of two-100 mg capsules; format: ADME, organism-based
[27] = Tmax in 8 hrs fasted healthy human plasma at 200 mg, po administered as single dose of suspension; format: ADME, organism-based
[28] = AUC (0 to last) in 8 hrs fasted healthy human plasma at 200 mg, po administered as single dose of suspension; format: ADME, organism-based; parameters: dose 200 mg, route oral, time 0 - last
Homo sapiens [29] = test: Ratio of Cmax in 8 hrs fasted healthy human plasma at 200 mg, po administered as single dose of suspension to cmax in 8 hrs fasted healthy human plasma assessed as EDP-420 9-keto level at 200 mg, po administered as single dose of suspension; format: ADME, organism-based; conditions: in vivo

With `CC[C@H]1OC(=O)[C@H](C)C(=O)[C@H](C)[C@@H](O[C@@H]2O[C@H](C)C[C@H](N(C)C)[C@H]2O)[C@@]2(C)C[C@@H](C)/C(=N\C(C)=O)[C@H](C)[C@@H](OC/C(=N\OCc3ccc(-n4cccn4)nc3)CO2)[C@]1(C)O` [MODITHROMYCIN] the Activity (Homo sapiens [1]) was “Non-toxic”, the AUC(0-t) at 24 h [2] was 6.2 µg·h/mL and the Activity (Homo sapiens [3]) was “Non-toxic”. The Activity (Homo sapiens [4]) was “Non-toxic”, the Tmax [5] was 3.25 h and the Ratio (Homo sapiens [6]) was 0.058. For the same compound, the AUC [7] was 2560 µg·h/mL, the AUC(0-t) [8] was 8.94 µg·h/mL and the “Ratio AUC” value (Homo sapiens [9]) was 1.4. The Tmax [10] was 4 h, the Activity (Homo sapiens [11]) was “Non-toxic” and the AUC(0-t) at 72 h [12] was 16.4 µg·h/mL. The Activity (Homo sapiens [13]) was “Non-toxic”, the Cmax [14] was 405 ng/mL and the AUC(0-t) at 24 h [15] was 8.1 µg·h/mL. The Activity (Homo sapiens [16]) was “Non-toxic”, the Activity (Homo sapiens [17]) was “Non-toxic” and the half-life [18] was 17.4 h. For the same compound, the Activity (Homo sapiens [19]) was “Non-toxic”, the Cmax [20] was 381 ng/mL and the Activity (Homo sapiens [21]) was “Non-toxic”. The Activity (Homo sapiens [22]) was “Non-toxic”, the Ratio (Homo sapiens [23]) was 0.093 and the Ratio (Homo sapiens [24]) was 0.101. It also gave a Tmax [25] of 3.5 h, a half-life [26] of 16.9 h and a Tmax [27] of 3.5 h. The AUC(0-t) [28] was 8.27 µg·h/mL and the Ratio (Homo sapiens [29]) was 0.065.

From ChEMBL document CHEMBL1687734, “Pharmacokinetics of EDP-420 after multiple oral doses in healthy adult volunteers and in a bioequivalence study” (Antimicrob Agents Chemother, 2009)
